Data set [1] is described as follows: oral acute toxicity in the mouse (LD50). The class given is in vivo. To be noted: for LD50: in vivo, oral route. The procedure:
The compounds of Examples 3, 67, 90, 107 and 114 are atoxic at the dose of 500 mg/kg in the mouse.

In data set [2] the target is central benzodiazepine receptors. Briefly: inhibition of specific binding of [3H] flunitrazepam to central benzodiazepine receptors, rat brain. To be noted: 4° C., pH 7.4. The protocol: (b) determination of the concentration of the product under study inhibiting 50% of the specific binding of flunitrazepam to the central receptors.
The brains of rats were removed after decapitation and ground, then placed in suspension in an aqueous solution of sucrose (0.32M). The mixture is centrifuged and the pellet is resuspended to give a homogenous suspension in a TRIS-HCl buffered solution (50 mM; pH=7.4). Aliquots of this suspension are incubated at 4° C. after addition of [^3 H] flunitrazepam, alone or with increasing amounts of the compound to be tested.

The subject of data set [3] is receptors of the peripheral type. Briefly: in vivo inhibition of [3H] PK11195 binding to peripheral type receptors in organs of the mouse. The procedure: The assays were carried out in the mouse by using the binder [^3 H]
The products to be tested are administered orally in suspension in an aqueous solution of carboxymethylcellulose (1% wt/v) to groups of 4 mice 35 mn before the intravenous injection of [^3 H] […] 5 mn after the injection the animals are sacrificed by decapitation and the different organs are removed and ground in 10 ml Tris-HCl buffer (50 mM; pH=7.4) to give homogenates.
The control groups only received the carboxymethylcellulose solution and the injection of [^3 H]
A determination was made for each organ by means of scintigraphy of:
1--the amount of radioactive binder present in an organ by measuring the radioactivity of an aliquot of the homogenate.
2--the amount of radioactive binder bound to the membrane tissues of an organ by measuring the radioactivity bound on a fiber glass filter after filtration of another aliquot of the homogenate.
3--the amount of radioactive binder bound non-specifically to the membrane tissues by incubating a control homogenate with an excess of RO5-4864, a known binder, followed by binding of the membranes to a filter and measurement of the radioactivity remaining on the membranes.
The inhibition of specific binding, recorded as SB, is equal to the difference between the radioactivity measurements 2 and 3 divided by measurement 1.
The percentages of inhibition of the binding in different organs determined for compounds of the invention and the reference substances are shown in table VI; they are given by the formula: [formula]

The target in data set [4] is T1, benzodiazepine receptors of the peripheral type (Felis catus, UniProt A0ABI7ZQW3).
T1 sequence (A0ABI7ZQW3 15-183): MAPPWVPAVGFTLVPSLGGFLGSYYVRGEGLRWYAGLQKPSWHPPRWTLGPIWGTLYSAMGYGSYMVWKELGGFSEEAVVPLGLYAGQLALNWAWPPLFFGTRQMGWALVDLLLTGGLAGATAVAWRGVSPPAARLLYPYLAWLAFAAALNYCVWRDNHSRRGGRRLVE
Briefly: inhibition of specific binding of [3H] PK11195 to peripheral type benzodiazepine receptors, membrane proteins of cat brain. The procedure:
The method is similar to that described by J. Benavides et al. in Brain Res. Bull. 13 p. 69-77 (1984) and references cited therein.
Suspensions of membrane proteins of cat brain were prepared as described by J. Benavides.
The assays of inhibition of the binding of [^3 H]
Non specific binding was defined as the amount of [^3 H]

The mark [5] stands for this setting: [3H] PK11195 0.5 nM, cat brain membranes, 4° C., 2h30; read-out: IC50 (peripheral).

Like-named read-outs stand apart in the source and are kept apart here.

Consider 32 compounds from US5026711A, “4-amino quinolines and naphthyridines and their use as medicines” (priority 1988, dated 1991).

For `CN(C(=O)CNc1c(C(=O)c2ccccc2)cnc2cccnc12)c1ccc(Cl)cc1` [SR 26276], the LD50 in data set [1] is > 1800 mg/kg.

For the compound `COc1ccc(N(C)C(=O)CNc2c(C(=O)c3ccccc3)cnc3cccnc23)cc1` [compound 27161], the half-maximal inhibitory concentration (IC50) in data set [2] is > 10000 nM. Moreover, in data set [3] (25 mg/kg oral), the “% Inhibition, brain” value is on record as 92% and the “% Inhibition, spleen” value was 78%. For the same compound, the IC50 in data set [4] (setting [5]) is 2.3 nM.

In the case of `CN(C(=O)CNc1c(C(=O)c2ccccc2)cnc2cc(Br)ccc12)c1ccc(Cl)cc1` [compound 26876], the IC50 in data set [2] was > 10000 nM. Moreover, in data set [3] (25 mg/kg oral), the “% Inhibition, brain” value was 84% and the “% Inhibition, spleen” value is recorded as 64%. In data set [4] (setting [5]), the IC50 came out at 0.5 nM.

In the case of `CN(C(=O)CNc1c(C(=O)c2ccccc2)cnc2cc(Cl)cnc12)c1ccc(Cl)cc1` [compound 26830], the IC50 in data set [2] is > 10000 nM. Besides, in data set [3] (25 mg/kg oral), the “% Inhibition, brain” value was 64% and the “% Inhibition, spleen” value was 26%. In addition, in data set [4] (setting [5]), the IC50 was determined as 0.13 nM.

`COc1ccc(C(=O)c2cnc3cccnc3c2NCC(=O)N(C)c2ccc(Cl)cc2)cc1` [compound 27153] registered an IC50 in data set [2] of 47900 nM. Moreover, in data set [3] (25 mg/kg oral), the “% Inhibition, brain” value stood at 87% and the “% Inhibition, spleen” value came out at 52%. In addition, the IC50 in data set [4] (setting [5]) was 1.62 nM.

Regarding `CN(C(=O)CNc1c(C(=O)c2ccccc2)cnc2cccnc12)c1ccc(Cl)cc1` [compound 26276], the IC50 in data set [2] amounted to 13400 nM. In addition, in data set [3] (8 mg/kg oral), the “% Inhibition, brain” value is given as 78%; the “% Inhibition, heart” value is 30%; the “% Inhibition, kidney” value turned out to be 69%; the “% Inhibition, spleen” value came out at 37%. Besides, the “% Inhibition, thymus” value in data set [3] (8 mg/kg oral) came out at 34%. The IC50 in data set [4] (setting [5]) is 0.3 nM.

In the case of `CN(C(=O)CNc1c(C(=O)c2ccccc2)cnc2cccnc12)c1ccc(Cl)cc1Cl` [SR 26972], the “atoxic at the dose of 500 mg/kg” value in data set [1] is listed as “atoxic”.

Turning to `COc1ccc(N(C)C(=O)CNc2c(C(=O)c3ccccc3)cnc3cc(Br)ccc23)cc1` [SR 27195], the “atoxic at the dose of 500 mg/kg” value in data set [1] is “atoxic”.

For `COc1ccc(N(C)C(=O)CNc2c(C(=O)c3ccccc3)cnc3cc(Cl)ccc23)cc1` [compound 26846], the IC50 in data set [2] is > 10000 nM; in data set [4] (setting [5]), 2.9 nM. Further, the “% Inhibition, brain” value in data set [3] (25 mg/kg oral) was 91%. For the same compound, the “% Inhibition, spleen” value in data set [3] (25 mg/kg oral) stood at 80%.

Turning to `CCC(C)N(C)C(=O)c1cc2ccccc2c(-c2ccccc2Cl)n1` (stereo not drawn) [PK11195, 1-(2-chlorophenyl) 3-(N-methyl N-methylpropyl) carbamoyl isoquinoline, reference compound], in data set [3] (15 mg/kg oral), the “% Inhibition, brain” value is recorded as 71%; the “% Inhibition, heart” value is given as 27%; the “% Inhibition, kidney” value is 54%; the “% Inhibition, spleen” value is recorded as 29%. The “% Inhibition, thymus” value in data set [3] (15 mg/kg oral) is reported as 30%. For the same compound, the IC50 in data set [4] (setting [5]) stood at 1.3 nM.

As for `CN(C(=O)CCNc1c(C(=O)c2ccccc2)cnc2cccnc12)c1ccc(Cl)cc1` [SR 26731], the “atoxic at the dose of 500 mg/kg” value in data set [1] is “atoxic”.

`CCCN(CCC)C(=O)C(C)Nc1c(C(=O)OCC)cnc2cc(C(F)(F)F)ccc12` (stereo not drawn) [SR 26241, ethyl 4-[1-(N,N-dipropylcarbamoyl)ethylamino] 7-trifluoromethyl quinoline 3-carboxylate] returned an LD50 in data set [1] of 1100 mg/kg.

In the case of `CCCN(CCC)C(=O)C(C)Nc1c(C(=O)OCC)cnc2ccc(Cl)cc12` (stereo not drawn) [SR 26058], in data set [1], the “atoxic at the dose of 500 mg/kg” value was “atoxic”.

On to `CCCN(CCC)C(=O)C(C)Nc1c(C(=O)OCC)cnc2ccc(C3CCCCC3)cc12` (stereo not drawn) [compound 26487], for which the IC50 was > 20000 nM in data set [2] and 39 nM in data set [4] (setting [5]).

Turning to `CN1C(=O)CN=C(c2ccc(Cl)cc2)c2cc(Cl)ccc21` [R05-4864, 7-chloro 1,3-dihydro 1-methyl 5-(4-chlorophenyl) 1,4-2H-benzodiazepine 2-one, reference compound], in data set [2], the “IC50 (central)” value is “inactive”. In data set [3] (15 mg/kg oral), the “% Inhibition, brain” value was determined as 74%; the “% Inhibition, heart” value worked out at 27%; the “% Inhibition, kidney” value was 73%; the “% Inhibition, spleen” value was found to be 11%. The “% Inhibition, thymus” value in data set [3] (15 mg/kg oral) is given as 28%. The IC50 in data set [4] (read-out: IC50 (peripheral); [3H] PK11195 0.5 nM, cat brain membranes, 4° C., 2h30) turned out to be 44 nM.

Regarding `CN(C(=O)CNc1c(C(=O)c2ccccc2)cnc2cccnc12)c1ccc(Cl)c(Cl)c1` [compound 26708], the values for the IC50 in data set [2] and in data set [4] (setting [5]) were > 10000 nM and 2.8 nM, respectively.

For `CCN(C(=O)CNc1c(C(=O)c2ccccc2)cnc2cccnc12)c1ccc(Cl)cc1` [compound 26858], the IC50 in data set [2] was > 10000 nM; in data set [4] (setting [5]) it was 0.77 nM. Moreover, the “% Inhibition, brain” value in data set [3] (25 mg/kg oral) came to 95%. Besides, in data set [3] (25 mg/kg oral), the “% Inhibition, spleen” value is recorded as 84%.

With `CCOC(=O)c1cnc2cc(Cl)ccc2c1NC(C)C(=O)N(C)c1ccc(Cl)cc1` (stereo not drawn) [compound 26423], the IC50 was 12600 nM in data set [2] and 1 nM in data set [4] (setting [5]).

For `CN(C(=O)CNc1c(C(=O)c2ccccc2)cnc2cccnc12)c1ccccc1Cl` [compound 26651], the results for the IC50 in data set [2] and in data set [4] (setting [5]) were 8490 nM and 0.93 nM, respectively.

For `CN(CC(=O)N(C)c1ccc(Cl)cc1)c1c(C(=O)c2ccccc2)cnc2cc(Cl)ccc12` [compound 26841], the IC50 was > 10000 nM in data set [2] and 17 nM in data set [4] (setting [5]).

For the compound `CC(Nc1c(C(=O)c2ccccc2)cnc2cccnc12)C(=O)N(C)c1ccc(Cl)cc1` (stereo not drawn) [SR 26455], the “atoxic at the dose of 500 mg/kg” value in data set [1] was “atoxic”.

In the case of `CCOC(=O)c1cnc2nc(Cl)ccc2c1NC(C)C(=O)N(C)c1ccc(Cl)cc1` (stereo not drawn) [compound 26555], the IC50 is > 20000 nM in data set [2] and 5 nM in data set [4] (setting [5]).

As to `CN(C(=O)CNc1c(C(=O)c2ccccc2)cnc2cc(Cl)ccc12)c1ccc(Cl)cc1` [compound 26412], the values for the IC50 in data set [2] and in data set [4] (setting [5]) were > 10000 nM and 0.4 nM, respectively. Also, the “% Inhibition, brain” value in data set [3] (25 mg/kg oral) is on record as 79%. For the same compound, the “% Inhibition, spleen” value in data set [3] (25 mg/kg oral) is 62%.

In the case of `CCCN(CCC)C(=O)C(Nc1c(C(=O)OCC)cnc2ccc(Cl)cc12)c1ccccc1` (stereo not drawn) [compound 26529], the IC50 in data set [2] is > 20000 nM; in data set [4] (setting [5]), 16 nM.

As for `CCCN(CCC)C(=O)CNc1c(C(=O)c2ccc(Cl)cc2)cnc2ccc(Cl)cc12` [compound 26304], the IC50 in data set [2] is 14500 nM; in data set [4] (setting [5]), 13 nM.

On to `CNC1=Nc2ccc(Cl)cc2C(c2ccccc2)=[N+]([O-])C1` [CHLORDIAZEPOXIDE, reference compound], for which the IC50 in data set [2] was determined as 654 nM. The “IC50 (peripheral)” value in data set [4] ([3H] PK11195 0.5 nM, cat brain membranes, 4° C., 2h30) is “inactive”.

Consider `CN(C(=O)CNc1c(C(=O)c2ccccc2)cnc2cccnc12)c1c(Cl)cccc1Cl` [compound 26947], for which the values for the IC50 in data set [2] and in data set [4] (setting [5]) were 18600 nM and 0.79 nM, respectively.

In the case of `CN(C(=O)CNc1c(C(=O)c2ccccc2)cnc2cc(Cl)ccc12)c1ccc(C(F)(F)F)cc1` [compound 26778], the IC50 is > 10000 nM in data set [2] and 27 nM in data set [4] (setting [5]).

Turning to `CCCN(CCC)C(=O)C(C)Nc1c(C(=O)OCC)cnc2cc(Cl)ccc12` (stereo not drawn) [compound 26310], the concentration for half-maximal inhibition (IC50) in data set [2] is > 20000 nM. Also, in data set [3] (25 mg/kg oral), the “% Inhibition, brain” value amounted to 76%; the “% Inhibition, heart” value was 39%; the “% Inhibition, kidney” value is 32%; the “% Inhibition, spleen” value was 52%. The “% Inhibition, thymus” value in data set [3] (25 mg/kg oral) was 31%. Also, in data set [4] (setting [5]), the IC50 was 1 nM.

On to `CCCN(CCC)C(=O)C(C)Nc1c(C(=O)OCC)cnc2cc(Br)ccc12` (stereo not drawn) [compound 26377], for which the half-maximal inhibitory concentration (IC50) in data set [2] was > 20000 nM; in data set [4] (setting [5]), 1 nM.

As to `CCCN(CCC)C(=O)C(C)Nc1c(C(=O)OCC)cnc2cc(C(F)(F)F)ccc12` (stereo not drawn) [compound 26241], the IC50 was > 20000 nM in data set [2] and 3 nM in data set [4] (setting [5]).

For the compound `CCCN(CCC)C(=O)CNc1c(C(=O)c2ccncc2)cnc2cc(Cl)ccc12` [compound 26439], the IC50 in data set [2] is > 10000 nM; in data set [4] (setting [5]), 89 nM.

In general, LD50 refers to the dose expected to kill half of the subjects tested. Lower therefore signals a more toxic substance. What is called IC50 is the point on the concentration scale where inhibition reaches its midpoint.
